Reference: patent US7678918B2, “Intermediates for imidazonaphthyridines” (3M Innovative Properties Company, priority 1997, dated 2010)

Assays:
IFN = assay: Cytokine Induction in Human Cells: interferon (IFN) secreted by PBMCs, A549/encephalomyocarditis bioassay; assay type: cell-based; details: 18 to 24 hours
Description: (§1) An in vitro human blood cell system was used to assess cytokine induction by compounds of the invention. Activity is based on the measurement of interferon and tumor necrosis factor (ℑ) (IFN and TNF, respectively) secreted into culture media as described by Testerman et. al. In “Cytokine Induction by the Immunomodulators Imiquimod and S-27609”, Journal of Leukocyte Biology, 58, 365-372 (September, 1995). Blood Cell Preparation for Culture
(§2) Whole blood is collected by venipuncture into EDTA vacutainer tubes from healthy human donors. Peripheral blood mononuclear cells (PBMCs) are separated from whole blood by Histopaque®-1077 (Sigma Chemicals, St. Louis, Mo.) density gradient centrifugation. The PBMCs are suspended at 1.5-2×10^6 cells/mL in RPMI 1640 medium containing 10% fetal bovine serum, 2 mM L-glutamine and 1% penicillin/streptomycin solution (RPMI complete). 1 mL portions of PBMC suspension are added to 24 well flat bottom sterile tissue culture plates.
(§3) The compounds are solubilized in dimethyl sulfoxide (DMSO). The DMSO concentration should not exceed a final concentration of 1% for addition to the culture wells. The compounds are generally tested in a concentration range of from 0.1 to 100 μM.
(§4) The solution of test compound is added to the wells containing 1 mL of PBMCs in media. The plates are covered with plastic lids, mixed gently and then incubated for 18 to 24 hours at 37° C. with a 5% carbon dioxide atmosphere.
(§5) Following incubation the plates are centrifuged for 5-10 minutes at 1000 rpm (˜200×g) at 4° C. The cell culture supernatant is removed with a sterile polypropylene pipet and transferred to a 2 mL sterile cryotube. Samples are maintained at −70° C. until analysis.
Interferon is determined by bioassay using A549 human lung carcinoma cells challenged with encephalomyocarditis. The details of the bioassay method have been described by G. L. Brennan and L. H. Kronenberg in “Automated Bioassay of Interferons in Micro-test Plates”, Biotechniques, June/July 78, 1983, incorporated herein by reference. Briefly stated the method is as follows: A549 cells are incubated with samples and standard interferon dilutions at 37° C. for 24 hours. The incubated cells are then infected with an inoculum of encephalomyocarditis virus. The infected cells are incubated for an additional 24 hours at 37° C. before quantifying for viral cytopathic effect. The viral cytopathic effect is quantified by staining followed by visual scoring of the plates. Results are expressed as alpha reference units/mL based on the value obtained for NIH Human Leukocyte IFN standard.

TNF = assay: Cytokine Induction in Human Cells: tumor necrosis factor (TNF) secreted by PBMCs, ELISA; assay type: cell-based; details: 18 to 24 hours
Description: as §1, §2, §3, §4, §5
Tumor necrosis factor (ℑ) (TNF) concentration is determined using an ELISA kit available from Genzyme, Cambridge, Mass. The results are expressed as pg/mL.
Further: call rule not given here.

SMILES	IFN induction (IFN; Dose Concentration 0.1 μM)	IFN induction (IFN; Dose Concentration 1.0 μM)	IFN induction (IFN; Dose Concentration 10.0 μM)	IFN induction (IFN; Dose Concentration 100.0 μM)	TNF induction (TNF; Dose Concentration 0.1 μM)	TNF induction (TNF; Dose Concentration 1.0 μM)	TNF induction (TNF; Dose Concentration 10.0 μM)	TNF induction (TNF; Dose Concentration 100.0 μM)
CCCCc1nc2c(N)nc3cccnc3c2n1CCNS(C)(=O)=O [Example 116, N^1-[4-(4-Amino-2-butyl-1H-imidazo[4,5-c][1,5]naphthyridin-1-yl)ethyl]methanesulfonamide]	−	+	+	+	−	+	+	+
CCCCc1nc2c(N)nc3cccnc3c2n1CCNS(=O)(=O)c1ccccc1 [Example 117, N^1-[4-(4-Amino-2-butyl-1H-imidazo[4,5-c][1,5]naphthyridin-1-yl)ethyl]benzenesulfonamide]	−	−	+	+	−	−	+	+
CCCCc1nc2c(N)nc3cccnc3c2n1CCNC(=O)C1(c2ccc(Cl)cc2)CCCC1 [Example 119]		−	−	−		−	−	−
CCCCc1nc2c(N)nc3cccnc3c2n1CCNC(=O)COCc1ccccc1 [Example 121]		+	+	+		+	+	+
CCCCc1nc2c(N)nc3cccnc3c2n1CCNC(=O)CCCCCCCCC(=O)OC [Example 122]		−	+	+		−	+	+
CCCCc1nc2c(N)nc3cccnc3c2n1CCNC(=O)CC1CCCC1 [Example 124]		+	+	+		−	+	+
CCCCc1nc2c(N)nc3cccnc3c2n1CCNC(=O)c1cc(C(F)(F)F)cc(C(F)(F)F)c1 [Example 125]		+	+	+		−	+	+
CCCCc1nc2c(N)nc3cccnc3c2n1CCNC(=O)c1c(OC)cccc1OC [Example 128]		±	+	+		−	±	+
CCCCc1nc2c(N)nc3cccnc3c2n1CCNC(=O)c1ccc(F)cc1 [Example 129]		+	+	+		+	+	+
CCCCc1nc2c(N)nc3cccnc3c2n1CCNC(=O)CC(C)(C)C [Example 135]		−	+	+		−	+	+
CCCCc1nc2c(N)nc3cccnc3c2n1CCNC(=O)C1CC1 [Example 136]		+	+	+		−	+	+
CCCCc1nc2c(N)nc3cccnc3c2n1CCNC(=O)C1CCCC1 [Example 137]		+	+	+		−	±	+
CCCCc1nc2c(N)nc3cccnc3c2n1CCNC(=O)CCC1CCCC1 [Example 138]		+	+	+		+	+	+
